Patent US11607446B2, “Personalized immunotherapy against several neuronal and brain tumors” (Immatics Biotechnologies GmbH, priority 2013, dated 2023)

Tests used:
[1] = system: CD8+ T cells; test: In vitro immunogenicity of HLA-A*24 class I peptides: in vitro T-cell priming with aAPCs loaded with peptide/MHC complexes and anti-CD28 antibody, pMHC multimer readout; format: cell-based, human; settings: for Wells: share of positive wells in the in vitro immunogenicity experiments
Experimental: In order to obtain information regarding the immunogenicity of the TUMAPs of the present invention, we performed investigations using an in vitro T-cell priming assay based on repeated stimulations of CD8+ T cells with artificial antigen presenting cells (aAPCs) loaded with peptide/MHC complexes and anti-CD28 antibody.
Isolated CD8+ lymphocytes or PBMCs were incubated until use in T-cell medium (TCM) consisting of RPMI-Glutamax (Invitrogen, Karlsruhe, Germany) supplemented with 10% heat inactivated human AB serum (PAN-Biotech, Aidenbach, Germany), 100 U/ml Penicillin/100 μg/ml Streptomycin (Cambrex, Cologne, Germany), 1 mM sodium pyruvate (CC Pro, Oberdorla, Germany), 20 μg/ml Gentamycin (Cambrex). 2.5 ng/ml IL-7 (PromoCell, Heidelberg, Germany) and 10 U/ml IL-2 (Novartis Pharma, Nurnberg, Germany) were also added to the TCM at this step. Generation of pMHC/anti-CD28 coated beads, T-cell stimulations and readout was performed in a highly defined in vitro system using four different pMHC molecules per stimulation condition and 8 different pMHC molecules per readout condition. All pMHC complexes used for aAPC loading and cytometric readout were derived from UV-induced MHC ligand exchange with minor modifications. In order to determine the amount of pMHC monomer obtained by exchange we performed streptavidin-based sandwich ELISAs according to (Rodenko et al., 2006). The purified co-stimulatory mouse IgG2a anti human CD28 Ab 9.3 (Jung et al., 1987) was chemically biotinylated using Sulfo-N-hydroxysuccinimidobiotin as recommended by the manufacturer (Perbio, Bonn, Germany). Beads used were 5.6 μm diameter streptavidin coated polystyrene particles (Bangs Laboratories, Illinois, USA).
800.000 beads/200 μl were coated in 96-well plates in the presence of 4×12.5 ng different biotin-pMHC, washed and 600 ng biotin anti-CD28 were added subsequently in a volume of 200 μl. Stimulations were initiated in 96-well plates by co-incubating 1×10^6 CD8+ T cells with 2×10^5 washed coated beads in 200 μl TCM supplemented with 5 ng/ml IL-12 (PromoCell) for 3-4 days at 37° C. Half of the medium was then exchanged by fresh TCM supplemented with 80 U/ml IL-2 and incubating was continued for 3-4 days at 37° C. This stimulation cycle was performed for a total of three times, with 12 individual wells per condition For the pMHC multimer readout using 8 different pMHC molecules per condition, a two-dimensional combinatorial coding approach was used as previously described (Andersen et al., 2012) with minor modifications encompassing coupling to 5 different fluorochromes. Finally, multimeric analyses were performed by staining the cells with Live/dead near IR dye (Invitrogen, Karlsruhe, Germany), CD8-FITC antibody clone SK1 (BD, Heidelberg, Germany) and fluorescent pMHC multimers. For analysis, a BD LSRII SORP cytometer equipped with appropriate lasers and filters was used. Peptide specific cells were calculated as percentage of total CD8+ cells. Evaluation of multimeric analysis was done using the FlowJo software (Tree Star, Oregon, USA). In vitro priming of specific multimer+ CD8+ lymphocytes was detected by comparison to irrelevant control stimulations.
Exemplary flow cytometry results after TUMAP-specific multimer staining for two peptides of the invention are shown in FIG. 4 together with corresponding negative controls.

[2] = system: CD8+ T cells; test: In vitro immunogenicity of HLA-A*02 class I peptides: in vitro T-cell priming with aAPCs loaded with peptide/MHC complexes and anti-CD28 antibody, pMHC multimer readout; format: cell-based, human; settings: HLA-A*02 peptides
[3] = share of positive donors in the in vitro immunogenicity experiments, given as a class symbol

Substance	Donors [1, 3]	Wells ([1]; given as a class symbol)	Donors [1]	Donors ([2]; healthy donors, specific multimer+ CD8+ T-cell line after in vitro stimulation)	Wells ([2]; in vitro stimulated wells of healthy donors' CD8+ T cells, specific multimer+ readout)
AFSPDSHYLLF (listed as Homo sapiens) [ITGA7-001]	++ (20%-49 % = ++)	+ (<20% = +)	–	–	–
AYLIDIKTI (listed as Homo sapiens) [IFT17-001]	+++ (50%-70% = +++)	+ (<20% = +)	–	–	–
AYPRLSLSF (listed as Homo sapiens) [GAB-001]	++ (20%-49 % = ++)	+ (<20% = +)	–	–	–
AYSDGHFLF (listed as Homo sapiens) [TENM4-001]	++ (20%-49 % = ++)	+ (<20% = +)	–	–	–
AYVLRLETL (listed as Homo sapiens) [PNMA2-001]	++ (20%-49 % = ++)	+ (<20% = +)	–	–	–
CRB 1-001 (SYFENVHGF; listed as Homo sapiens)	++ (20%-49 % = ++)	+ (<20% = +)	–	–	–
EYIRALQQL (listed as Homo sapiens) [ASCL1-001]	++ (20%-49 % = ++)	+ (<20% = +)	–	–	–
EYMKALGVGF (listed as Homo sapiens) [FABP7-002]	++ (20%-49 % = ++)	+ (<20% = +)	–	–	–
FYGPQVNNI (listed as Homo sapiens) [WASL-001]	++++ (>70% = ++++)	+ (<20% = +)	–	–	–
HYKPTPLYF (listed as Homo sapiens) [SMC4-001]	++ (20%-49 % = ++)	+ (<20% = +)	–	–	–
IFTYIHLQL (listed as Homo sapiens) [LOC72839-001]	+++ (50%-70% = +++)	+ (<20% = +)	–	–	–
IYGGHHAGF (listed as Homo sapiens) [OLIG2-001]	++ (20%-49 % = ++)	+ (<20% = +)	–	–	–
KFAEEFYSF (listed as Homo sapiens) [CDCA7L-001]	++ (20%-49 % = ++)	+ (<20% = +)	–	–	–
KYFDKVVTL (listed as Homo sapiens) [KIF7-001]	++ (20%-49 % = ++)	+ (<20% = +)	–	–	–
KYFGGVLEYF (listed as Homo sapiens) [RHOBTB3-001]	++ (20%-49 % = ++)	+ (<20% = +)	–	–	–
KYFSFPGEL (listed as Homo sapiens) [SLC-002]	++ (20%-49 % = ++)	+ (<20% = +)	–	–	–
KYNEFSVSL (listed as Homo sapiens) [HEATR1-001]	+++ (50%-70% = +++)	+ (<20% = +)	–	–	–
KYNLINEYF (listed as Homo sapiens) [HS2-001]	++ (20%-49 % = ++)	+ (<20% = +)	–	–	–
LYIYPQSLNF (listed as Homo sapiens) [DOCK7-002]	+++ (50%-70% = +++)	+ (<20% = +)	–	–	–
MYPYIYHVL (listed as Homo sapiens) [FAM120C-001]	++++ (>70% = ++++)	++ (20%-49 % = ++)	100%	–	–
NROB1-001 (AYLKGTVLF; listed as Homo sapiens)	++ (20%-49 % = ++)	+ (<20% = +)	–	–	–
NYIDNVGNLHF (listed as Homo sapiens) [LNX1-001]	++ (20%-49 % = ++)	+ (<20% = +)	–	–	–
NYKDLNGNVF (listed as Homo sapiens) [SSR1-001]	++ (20%-49 % = ++)	+ (<20% = +)	–	–	–
NYNDRYDEI (listed as Homo sapiens) [RPL-001]	++ (20%-49 % = ++)	+ (<20% = +)	–	–	–
NYQDTIGRL (listed as Homo sapiens) [VIM-002]	++ (20%-49 % = ++)	+ (<20% = +)	–	–	–
NYTSLLVTW (listed as Homo sapiens) [PTP-018]	++++ (>70% = ++++)	+ (<20% = +)	–	–	–
NYTSLLVTW^+4 (listed as Homo sapiens) [PTP-019]	++ (20%-49 % = ++)	+ (<20% = +)	–	–	–

Substance	Donors [1, 3]	Wells ([1]; given as a class symbol)	Donors [1]	Donors ([2]; healthy donors, specific multimer+ CD8+ T-cell line after in vitro stimulation)	Wells ([2]; in vitro stimulated wells of healthy donors' CD8+ T cells, specific multimer+ readout)
PFAKPLPTF (listed as Homo sapiens) [EP4-001]	++ (20%-49 % = ++)	+ (<20% = +)	–	–	–
PYLDKFFAL (listed as Homo sapiens) [DOCK7-003]	++ (20%-49 % = ++)	+ (<20% = +)	–	–	–
PYNHQHEYF (listed as Homo sapiens) [FADS2-002]	++++ (>70% = ++++)	+ (<20% = +)	–	–	–
QWAPILANF (listed as Homo sapiens) [NKA-001]	++ (20%-49 % = ++)	+ (<20% = +)	–	–	–
QYQIIMTMI (listed as Homo sapiens) [FADS2-003]	+++ (50%-70% = +++)	+ (<20% = +)	–	–	–
QYVFIHDTL (listed as Homo sapiens) [PTP-015]	++ (20%-49 % = ++)	+ (<20% = +)	–	–	–
RYGPQFTL (listed as Homo sapiens) [PCD-002]	++ (20%-49 % = ++)	+ (<20% = +)	–	–	–
RYIPLIVDI (listed as Homo sapiens) [ARHGAP21-001]	++ (20%-49 % = ++)	+ (<20% = +)	–	–	–
RYLPSSVFL (listed as Homo sapiens) [ZNF749-001]	++ (20%-49 % = ++)	+ (<20% = +)	–	–	–
RYQESLGNTVF (listed as Homo sapiens) [PJA2-001]	++ (20%-49 % = ++)	+ (<20% = +)	–	–	–
RYSDGLLRF (listed as Homo sapiens) [LZTS1-001]	++ (20%-49 % = ++)	+ (<20% = +)	–	–	–
SYNPLWLRI (listed as Homo sapiens) [ASPM-002]	+++ (50%-70% = +++)	+ (<20% = +)	–	–	–
TYIIKSVGF (listed as Homo sapiens) [UNKN-003]	++ (20%-49 % = ++)	+ (<20% = +)	–	–	–
TYIPPLLVAF (listed as Homo sapiens) [TMEM231-001]	+++ (50%-70% = +++)	+ (<20% = +)	–	–	–
TYNYAVLKF (listed as Homo sapiens) [GPM-002]	+++ (50%-70% = +++)	+ (<20% = +)	–	–	–
TYTSYLDKF (listed as Homo sapiens) [MAPK6-001]	++ (20%-49 % = ++)	+ (<20% = +)	–	–	–
TYVDSSHTI (listed as Homo sapiens) [VCAN-003]	+++ (50%-70% = +++)	+ (<20% = +)	–	–	–
VLPDADTLLHF (listed as Homo sapiens) [APC-001]	++ (20%-49 % = ++)	+ (<20% = +)	–	–	–
VYDTMIEKF (listed as Homo sapiens) [PTP-016]	++ (20%-49 % = ++)	+ (<20% = +)	–	–	–
VYLKEANAI (listed as Homo sapiens) [KIF1B-001]	++ (20%-49 % = ++)	+ (<20% = +)	–	–	–
VYLTIKPLNL (listed as Homo sapiens) [EFCAB7-001]	++ (20%-49 % = ++)	+ (<20% = +)	–	–	–
VYNDIGKEMLL (listed as Homo sapiens) [KIF1B-002]	++ (20%-49 % = ++)	+ (<20% = +)	–	–	–
VYNLTQEFF (listed as Homo sapiens) [SMOX-001]	++ (20%-49 % = ++)	+ (<20% = +)	–	–	–
VYQVLQEHL (listed as Homo sapiens) [BMP7-001]	++ (20%-49 % = ++)	+ (<20% = +)	–	–	–
VYYFHPQYL (listed as Homo sapiens) [ST8SIA5-001]	++++ (>70% = ++++)	++ (20%-49 % = ++)	–	–	–
YQDPHSTAV (listed as Homo sapiens) [EGFR-008]	–	–	–	++ (20%-49 % = ++)	+ (<20% = +)
